Earlier results as cited in Sander's compilation of Henry's law constants (doi:10.1016/s0016-7037(99)00330-0).

Assay: Henry solubility constant Hcp at 298.15 K (mol/(m3 Pa))
Conditions: reference: Plyasunov and Shock (2000); cited value
In the case of CCc1ccccc1 [ethylbenzene], the “Henry solubility constant Hcp” value is given as 0.0013. For CCCCc1ccccc1 [butylbenzene], the “Henry solubility constant Hcp” value is given as 0.00071. For Cc1ccc(C(C)C)cc1 [1-methyl-4-(1-methylethyl)-benzene], the “Henry solubility constant Hcp” value is given as 0.00096. For CCC#CC(C)C [2-methyl-3-hexyne], the “Henry solubility constant Hcp” value is listed as 0.00022. In the case of C#CC [propyne], the “Henry solubility constant Hcp” value is given as 0.00075. For CCC(C)CO (centres undefined) [2-methyl-1-butanol], the “Henry solubility constant Hcp” value is given as 0.71. In the case of C=Cc1ccccc1 [ethenylbenzene], the “Henry solubility constant Hcp” value is given as 0.0029. For CC(C)CC(C)(C)C [2,2,4-trimethylpentane], the “Henry solubility constant Hcp” value is given as 3e-06. In the case of CC=CCCCC [2-heptene], the “Henry solubility constant Hcp” value is given as 2.3e-05. For C1=CCC=C1 [1,3-cyclopentadiene], the “Henry solubility constant Hcp” value is listed as 0.00018. For CCC(C)C [2-methylbutane], the “Henry solubility constant Hcp” value is given as 7.7e-06. In the case of CC(C)CCC(C)(C)C [2,2,5-trimethylhexane], the “Henry solubility constant Hcp” value is listed as 2.8e-06. In the case of CC(C)c1ccccc1 [(2-propyl)-benzene], the “Henry solubility constant Hcp” value is given as 0.00084. In the case of CCC(C)c1ccccc1 (centres undefined) [(1-methylpropyl)-benzene], the “Henry solubility constant Hcp” value is listed as 0.00053. For CCCC(C)C [2-methylpentane], the “Henry solubility constant Hcp” value is given as 5.7e-06. In the case of C=CCCCCCC [1-octene], the “Henry solubility constant Hcp” value is listed as 1.1e-05. For CCCCC(CC)CO (centres undefined) [2-ethyl-1-hexanol], the “Henry solubility constant Hcp” value is listed as 0.46. In the case of CCCCCCO [1-hexanol], the “Henry solubility constant Hcp” value is given as 0.66. For CCC#CC(C)(C)C [2,2-dimethyl-3-hexyne], the “Henry solubility constant Hcp” value is listed as 0.00014. In the case of CCCCCCCO [1-heptanol], the “Henry solubility constant Hcp” value is listed as 0.54. For C1=CCCC1 [cyclopentene], the “Henry solubility constant Hcp” value is listed as 0.00016. In the case of Cc1ccc(C)cc1 [1,4-dimethylbenzene], the “Henry solubility constant Hcp” value is listed as 0.0014. In the case of C=CC=C [1,3-butadiene], the “Henry solubility constant Hcp” value is listed as 0.00014. For Cc1ccc(C)c(C)c1 [1,2,4-trimethylbenzene], the “Henry solubility constant Hcp” value is given as 0.0016. In the case of CCC(O)(CC)CC [3-ethyl-3-pentanol], the “Henry solubility constant Hcp” value is given as 0.3. For CCCCC [pentane], the “Henry solubility constant Hcp” value is given as 8.7e-06. In the case of Cc1cccc(C)c1C [1,2,3-trimethylbenzene], the “Henry solubility constant Hcp” value is listed as 0.0026. In the case of CC1=CCC(C(C)C)C=C1 (stereo not drawn) [α-phellandrene], the “Henry solubility constant Hcp” value is given as 0.00018. For C1=CCCCC1 [cyclohexene], the “Henry solubility constant Hcp” value is listed as 0.00022. In the case of CCCCCC [hexane], the “Henry solubility constant Hcp” value is given as 6.9e-06. In the case of C1CCCC1 [cyclopentane], the “Henry solubility constant Hcp” value is listed as 5.5e-05. In the case of CCC(C)CC [3-methylpentane], the “Henry solubility constant Hcp” value is listed as 5.9e-06. In the case of C1CCCCC1 [cyclohexane], the “Henry solubility constant Hcp” value is listed as 5.3e-05. For C=CC(C)C [3-methyl-1-butene], the “Henry solubility constant Hcp” value is listed as 1.9e-05. In the case of CC1=CCCCC1 [1-methylcyclohexene], the “Henry solubility constant Hcp” value is listed as 0.00014. For C#CC=C [3-buten-1-yne], the “Henry solubility constant Hcp” value is given as 0.00041. For c1ccc2c(c1)CCCC2 [1,2,3,4-tetrahydronaphthalene], the “Henry solubility constant Hcp” value is listed as 0.0064. In the case of C=C [ethene], the “Henry solubility constant Hcp” value is given as 4.8e-05. In the case of C=CCCCC=C [1,6-heptadiene], the “Henry solubility constant Hcp” value is listed as 5.6e-05. In the case of CC#CCCCC [2-heptyne], the “Henry solubility constant Hcp” value is listed as 0.00049. For Cc1cc(C)cc(C)c1 [1,3,5-trimethylbenzene], the “Henry solubility constant Hcp” value is given as 0.0013. For C1=CCCCCC1 [cycloheptene], the “Henry solubility constant Hcp” value is listed as 0.0002. For C=CCC [1-butene], the “Henry solubility constant Hcp” value is given as 4.2e-05. For CCCCC(O)CC (centres undefined) [3-heptanol], the “Henry solubility constant Hcp” value is listed as 0.31. In the case of C#CCCCC#C [1,6-heptadiyne], the “Henry solubility constant Hcp” value is listed as 0.0046. For C#CCC [1-butyne], the “Henry solubility constant Hcp” value is listed as 0.00062. In the case of CC(C)(C)c1ccccc1 [(1,1-dimethylethyl)-benzene], the “Henry solubility constant Hcp” value is given as 0.00079. In the case of C1CCCCCCC1 [cyclooctane], the “Henry solubility constant Hcp” value is given as 9.3e-05. For CC(C)CO [2-methyl-1-propanol], the “Henry solubility constant Hcp” value is given as 0.85. For C=CCC(C)C [4-methyl-1-pentene], the “Henry solubility constant Hcp” value is given as 1.5e-05. For C=C1C2CCC(C2)C1(C)C (centres undefined) [2,2-dimethyl-3-methylene-bicyclo[2.2.1]heptane], the “Henry solubility constant Hcp” value is listed as 0.00023. For CCCC(C)O (centres undefined) [2-pentanol], the “Henry solubility constant Hcp” value is given as 0.65. In the case of CCCCCCCC [octane], the “Henry solubility constant Hcp” value is given as 4e-06. For CCCCCCCCO [1-octanol], the “Henry solubility constant Hcp” value is listed as 0.41. For C=C1CCC2(C(C)C)CC12 (centres undefined) [4-methylene-1-(1-methylethyl)-bicyclo[3.1.0]hexane], the “Henry solubility constant Hcp” value is given as 0.00015. In the case of C=C(C)C1CC=C(C)CC1 (centres undefined) [1-methyl-4-(1-methylethenyl)-cyclohexene], the “Henry solubility constant Hcp” value is listed as 0.00047. For Cc1ccccc1C(C)C [1-methyl-2-(1-methylethyl)-benzene], the “Henry solubility constant Hcp” value is listed as 0.0016. In the case of CCC#CCC [3-hexyne], the “Henry solubility constant Hcp” value is listed as 0.00055. For CCCCCCC(C)O (centres undefined) [2-octanol], the “Henry solubility constant Hcp” value is listed as 0.35. In the case of CCC(CC)CO [2-ethyl-1-butanol], the “Henry solubility constant Hcp” value is listed as 0.54. In the case of CCCCCC(C)O (centres undefined) [2-heptanol], the “Henry solubility constant Hcp” value is given as 0.41. In the case of CCCCC(C)C [2-methylhexane], the “Henry solubility constant Hcp” value is listed as 2.9e-06. For c1ccccc1 [benzene], the “Henry solubility constant Hcp” value is listed as 0.0018. In the case of C1CC1 [cyclopropane], the “Henry solubility constant Hcp” value is listed as 0.00012. In the case of C#CCCCCCC#C [1,8-nonadiyne], the “Henry solubility constant Hcp” value is listed as 0.003. For CC(C)CC(C)C [2,4-dimethylpentane], the “Henry solubility constant Hcp” value is listed as 3.3e-06. For C#C [ethyne], the “Henry solubility constant Hcp” value is given as 0.00041. For C#CCCCCCCC [1-nonyne], the “Henry solubility constant Hcp” value is given as 9.7e-05. In the case of C1=CCC=CC1 [1,4-cyclohexadiene], the “Henry solubility constant Hcp” value is listed as 0.001. In the case of CCC(C)C(C)C (centres undefined) [2,3-dimethylpentane], the “Henry solubility constant Hcp” value is given as 5.7e-06. In the case of C#CCCCC [1-hexyne], the “Henry solubility constant Hcp” value is listed as 0.0003. For CCCc1ccccc1 [propylbenzene], the “Henry solubility constant Hcp” value is given as 0.00091. For CC1CCC(C)(C)C1 (centres undefined) [1,1,3-trimethylcyclopentane], the “Henry solubility constant Hcp” value is given as 6.2e-06. In the case of CCO [ethanol], the “Henry solubility constant Hcp” value is given as 1.9. For CC1=CC=C(C(C)C)CC1 [1-methyl-4-(1-methylethyl)-1,3-cyclohexadiene], the “Henry solubility constant Hcp” value is given as 0.00051. In the case of C=CC(=C)C [2-methyl-1,3-butadiene], the “Henry solubility constant Hcp” value is listed as 0.00013. In the case of CC1CCCC1 [methylcyclopentane], the “Henry solubility constant Hcp” value is given as 2.8e-05. In the case of C=C(C)CCC [2-methyl-1-pentene], the “Henry solubility constant Hcp” value is listed as 3.3e-05. In the case of C#CCCCCCC [1-octyne], the “Henry solubility constant Hcp” value is given as 0.00012. In the case of CCCCCCc1ccccc1 [hexylbenzene], the “Henry solubility constant Hcp” value is listed as 0.0004. In the case of CCC(C)(C)CC [3,3-dimethylpentane], the “Henry solubility constant Hcp” value is given as 5.3e-06. In the case of CC1(C)C2CC3C(C2)C31C [tricyclene], the “Henry solubility constant Hcp” value is given as 4.9e-05. For Cc1ccccc1C [1,2-dimethylbenzene], the “Henry solubility constant Hcp” value is given as 0.002. For CCCC(C)CC (centres undefined) [3-methylhexane], the “Henry solubility constant Hcp” value is given as 4.5e-06. For CC(C)CC(C)O (centres undefined) [4-methyl-2-pentanol], the “Henry solubility constant Hcp” value is given as 0.35. For CCC(C)O (centres undefined) [2-butanol], the “Henry solubility constant Hcp” value is given as 0.99. In the case of CCC(C)(C)O [2-methyl-2-butanol], the “Henry solubility constant Hcp” value is listed as 0.71. For CC(C)C [2-methylpropane], the “Henry solubility constant Hcp” value is given as 9.2e-06. In the case of CC(C)(C)C#CC(C)(C)C [2,2,5,5-tetramethyl-3-hexyne], the “Henry solubility constant Hcp” value is listed as 3.4e-05. In the case of CC(C)CCO [3-methyl-1-butanol], the “Henry solubility constant Hcp” value is given as 0.7. In the case of CC(C)C(C)(C)O [2,3-dimethyl-2-butanol], the “Henry solubility constant Hcp” value is listed as 0.38. In the case of CC1CCCC(C)(C)C1 (centres undefined) [1,1,3-trimethylcyclohexane], the “Henry solubility constant Hcp” value is listed as 9.3e-06. In the case of C=CCCCCC [1-heptene], the “Henry solubility constant Hcp” value is listed as 2.5e-05. For Cc1cccc(C(C)C)c1 [1-methyl-3-(1-methylethyl)-benzene], the “Henry solubility constant Hcp” value is given as 0.0014. For CCCO [1-propanol], the “Henry solubility constant Hcp” value is listed as 1.5. For C=C(C)C [2-methylpropene], the “Henry solubility constant Hcp” value is given as 5.7e-05. For Cc1ccccc1 [methylbenzene], the “Henry solubility constant Hcp” value is given as 0.0016. For C1=CC=CCC=C1 [1,3,5-cycloheptatriene], the “Henry solubility constant Hcp” value is listed as 0.0022. In the case of C1CCCCCC1 [cycloheptane], the “Henry solubility constant Hcp” value is given as 0.0001. For C=CCCC [1-pentene], the “Henry solubility constant Hcp” value is listed as 2.4e-05. In the case of C=CC(=C)CCC=C(C)C [7-methyl-3-methylene-1,6-octadiene], the “Henry solubility constant Hcp” value is listed as 0.0004. For CCCCCCCCC [nonane], the “Henry solubility constant Hcp” value is listed as 2.1e-06. For CC=C(C)C [2-methyl-2-butene], the “Henry solubility constant Hcp” value is listed as 6.7e-05. For C[C@@H]1CCCC[C@@H]1C [cis-1,2-dimethylcyclohexane], the “Henry solubility constant Hcp” value is given as 2.8e-05. For CCCCC(C)CCC (centres undefined) [4-methyloctane], the “Henry solubility constant Hcp” value is given as 9.7e-07. For CC1CCCCC1 [methylcyclohexane], the “Henry solubility constant Hcp” value is listed as 2.4e-05. For C#CCCCCC [1-heptyne], the “Henry solubility constant Hcp” value is listed as 0.00018. In the case of CCCCCCCCCCCCCC [tetradecane], the “Henry solubility constant Hcp” value is listed as 9.3e-07. For C[C@H]1CC[C@H](C)CC1 [trans-1,4-dimethylcyclohexane], the “Henry solubility constant Hcp” value is listed as 1.1e-05.
